Legend:
[1] = test system: rat pilocarpine-induced salivary secretion model; test: Pilocarpine-induced salivary secretion, 0.25 cm^2 transdermal absorptive preparations (Test Example 3); details: 0.25 cm^2 applied to neck once a day, pilocarpine hydrochloride 0.5 mg/kg i.v.
[2] = test system: rat pilocarpine-induced salivary secretion model; test: Pilocarpine-induced salivary secretion, 0.5 cm^2 transdermal absorptive preparations (Test Example 2); type: in vivo, Hairless rats (HWY/Slc); details: 0.5 cm^2 applied to neck once a day, pilocarpine hydrochloride 0.5 mg/kg i.v., n=5
Method: Under isoflurane anesthesia, 0.5 cm^2 of each of the transdermal absorptive preparations (including a placebo preparation) containing various glycopyrronium salts produced in accordance with Preparation Production Example 1, Comparative Preparation Production Examples 2 and 4, and Reference Preparation Production Example 1 was applied to the necks of the rats once a day every 24 hours for 2 days.
The amount of saliva secreted was calculated from the difference between the weights of the cotton ball before and after collection of saliva, and taking the average value of the amount of saliva secreted of the placebo group as 100%, the salivary secretion proportion of each individual was calculated from the following (equation).

[3] = dissolved in ethanol, stability after 24 hours

With `C[N+]1(C)CCC(OC(=O)C(O)(c2ccccc2)C2CCCC2)C1` (stereo not drawn) [Glycopyrronium salicylate, 3-(2-cyclopentyl-2-hydroxy-2-phenylacetoxy)-1,1-dimethylpyrrolidium salicylate] the “salivary secretion suppressive effect compared with placebo group” value ([1]; Day 1 of application, listed as glycopyrronium salicylate) was “strongest and significant salivary secretion suppressive effect”, the “salivary secretion suppressive effect compared with placebo group” value ([1]; Day 2 of application, listed as glycopyrronium salicylate) was “strongest and significant salivary secretion suppressive effect” and the “salivary secretion suppressive effect compared with placebo group” value ([2]; Day 1 of application (23 hours after first application), listed as glycopyrronium salicylate) was “significant salivary secretion suppressive effects”. For the same compound, the “salivary secretion suppressive effect compared with placebo group” value ([2]; Day 2 of application (47 hours after first application)) was “strongest salivary secretion suppressive effect”.

Glycopyrronium acetate showed a decomposition in ethanol [3] of 20%.

For `C[N+]1(C)CCC(OC(=O)C(O)(c2ccccc2)C2CCCC2)C1.O=C([O-])CNC(=O)c1ccccc1` (racemic) [Glycopyrronium hippurate, (3RS, 2SR)-glycopyrronium hippurate], the “salivary secretion suppressive effect compared with placebo group” value ([1]; Day 1 of application) was “significant effect”, the “salivary secretion suppressive effect compared with placebo group” value ([1]; Day 2 of application) was “significant effect only on Day 1 of application” and the “salivary secretion suppressive effect compared with placebo group” value ([2]; Day 1 of application (23 hours after first application)) was “significant salivary secretion suppressive effects”.

In the case of `C[N+]1(C)CCC(OC(=O)C(O)(c2ccccc2)C2CCCC2)C1` (stereo not drawn) [Glycopyrronium bromide, (3RS, 2SR)-glycopyrronium bromide], the “salivary secretion suppressive effect compared with placebo group” value ([1]; Day 1 of application, listed as glycopyrronium bromide) is reported as “did not show any significant effect”, the “salivary secretion suppressive effect compared with placebo group” value ([1]; Day 2 of application, listed as glycopyrronium bromide) is reported as “did not show any significant effect” and the “salivary secretion suppressive effect compared with placebo group” value ([2]; Day 1 of application (23 hours after first application), listed as glycopyrronium-bromide) is reported as “no significant effect”.

`C[N+]1(C)CCC(OC(=O)C(O)(c2ccccc2)C2CCCC2)C1.O=C([O-])c1ccccc1` (stereo not drawn) [Glycopyrronium benzoate, glycopyrronium benzoate] showed a decomposition in ethanol [3] of 10%.

Source: patent publication US20240091195A1 (SANWA KAGAKU KENKYUSHO CO., LTD., priority 2021, published 2024)
